Source: patent publication US6936585B2, “Corticotropin releasing factor 2 receptor agonists” (priority 2002, dated 2005)
Peptide text beside a SMILES is read from it.

Tests used:
[1] = molecular target: T1, CRF1R (Homo sapiens, UniProt P34998); experiment: CRF1R agonist activation (EC50 / Emax), called comparative CRF binding; format: cell-based; conditions: for EC50: read-out: CRF1R EC50; for Emax: read-out: CRF1R Emax
T1 sequence (P34998 24-415): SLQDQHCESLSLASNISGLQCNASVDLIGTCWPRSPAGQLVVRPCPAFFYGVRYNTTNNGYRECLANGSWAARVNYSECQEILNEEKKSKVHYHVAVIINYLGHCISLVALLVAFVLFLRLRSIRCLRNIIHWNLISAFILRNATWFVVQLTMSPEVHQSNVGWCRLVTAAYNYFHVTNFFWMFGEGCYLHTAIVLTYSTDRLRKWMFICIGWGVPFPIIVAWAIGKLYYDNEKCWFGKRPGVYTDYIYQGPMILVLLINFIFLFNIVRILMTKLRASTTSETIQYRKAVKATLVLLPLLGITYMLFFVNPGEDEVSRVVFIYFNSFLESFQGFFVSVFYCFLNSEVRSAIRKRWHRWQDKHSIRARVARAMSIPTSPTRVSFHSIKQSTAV
Text: (§1) The pharmacological activity and selectivity of the peptides of present invention can be determined using published test procedures. See, e.g, U.S. patent application Ser. No. 09/799,978 (now issued U.S. Pat. No. 6,670,140). Because CRF2R and CRF1R are homologous proteins, it is expected that a certain proportion of agonists for CRF2R will also function as agonists of CRF1R. As discussed above, activation of CRF1R induces activation of the HPA axis since increased corticosteroid production leads to skeletal muscle atrophy. In most cases in which an increase in muscle mass or function is desired, it is not desirable to activate the HPA axis.
(§2) Cell-based assays include the steps of contacting cells which express CRF1R or CRF2R with a peptide of the present invention or control and measuring activation of the CRFR by measuring the expression or activity of components of the CRFR signal transduction pathways.
(§3) For example, after contact with a peptide of the present invention, lysates of the cells can be prepared and assayed for induction of cAMP. cAMP is induced in response to Gαs activation. Because Gαs is activated by receptors other than CRFR and because a test peptide may be exerting its effect through CRFRs or by another mechanism, two control comparisons are relevant for determining whether the peptide increases levels of cAMP via activation of a CRFR. One control compares the cAMP level of cells contacted with the peptide and the cAMP level of cells contacted with a control compound (i.e., the vehicle in which the peptide is dissolved).
(§4) In one example, cAMP induction is measured with the use of DNA constructs containing the cAMP responsive element linked to any of a variety of reporter genes can be introduced into cells expressing CRFRs. Such reporter genes include, but are not limited to, chloramphenicol acetyltransferase (CAT), luciferase, glucuronide synthetase, growth hormone, fluorescent proteins (e.g., Green Fluorescent Protein), or alkaline phosphatase. Following exposure of the cells to the peptide, the level of reporter gene expression can be quantitated to determine the peptide's ability to increase cAMP levels and thus determine the peptide's ability to activate the CRFR.
(§5) In addition to using cells expressing full length CRFRs, cells can be engineered which express CRFRs containing the ligand binding domain of the receptor coupled to, or physically modified to contain, reporter elements or to interact with signaling proteins. For example, a wild type CRFR or CRFR fragment can be fused to a G-protein resulting in activation of the fused G-protein upon agonist binding to the CRFR portion of the fusion protein. […] In addition, alternative pathways for induction of the CRE reporter could be eliminated to reduce basal levels.

[2] = molecular target: T2, CRF2R (Homo sapiens, UniProt Q13324); experiment: CRF2R agonist activation (EC50 / Emax), called comparative CRF binding; format: cell-based; conditions: for EC50: read-out: CRF2R EC50; for Emax: read-out: CRF2R Emax
T2 sequence (Q13324 1-411): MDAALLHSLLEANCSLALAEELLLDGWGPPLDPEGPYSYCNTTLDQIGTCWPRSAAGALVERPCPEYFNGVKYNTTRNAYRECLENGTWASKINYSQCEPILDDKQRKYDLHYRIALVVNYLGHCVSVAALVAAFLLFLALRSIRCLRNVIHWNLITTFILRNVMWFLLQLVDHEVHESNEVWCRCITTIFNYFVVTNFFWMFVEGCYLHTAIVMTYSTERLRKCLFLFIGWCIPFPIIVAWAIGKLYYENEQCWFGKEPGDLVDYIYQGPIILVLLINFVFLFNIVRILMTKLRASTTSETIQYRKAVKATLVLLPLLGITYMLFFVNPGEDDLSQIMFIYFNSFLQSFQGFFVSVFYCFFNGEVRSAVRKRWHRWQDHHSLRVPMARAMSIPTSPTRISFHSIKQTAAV
Text: as §1, §2, §3, §4, §5

Row | SMILES | EC50 [1] | Emax [1] | EC50 [2] | Emax [2]
1 | CC[C@H](C)[C@H](N)C(=O)N[C@H](C(=O)N[C@@H](CC(C)C)C(=O)N[C@@H](CO)C(=O)N[C@@H](CC(C)C)C(=O)N[C@@H](CC(=O)O)C(=O)N[C@H](C(=O)N1CCC[C@H]1C(=O)N[C@H](C(=O)NCC(=O)N[C@@H](CC(C)C)C(=O)N[C@@H](CC(C)C)C(=O)N[C@@H](CCC(N)=O)C(=O)N[C@H](C(=O)N[C@@H](CC(C)C)C(=O)N[C@@H](CC(C)C)C(=O)N[C@@H](CCC(=O)O)C(=O)N[C@@H](CCC(N)=O)C(=O)N[C@@H](C)C(=O)N[C@@H](CCCCN)C(=O)N[C@@H](CCC(N)=O)C(=O)N[C@@H](CCCNC(=N)N)C(=O)N[C@@H](C)C(=O)N[C@@H](C)C(=O)N[C@@H](CCCNC(=N)N)C(=O)N[C@@H](CCC(=O)O)C(=O)N[C@@H](CCC(N)=O)C(=O)N[C@@H](C)C(=O)N[C@H](C(=O)N[C@H](C(=O)N[C@@H](CC(N)=O)C(=O)N[C@@H](C)C(=O)N[C@@H](CCCNC(=N)N)C(=O)N[C@H](C(=O)N[C@@H](CC(C)C)C(=O)N[C@@H](C)C(=O)N[C@@H](CCCNC(=N)N)C(=O)N[C@H](C(N)=O)C(C)C)[C@@H](C)CC)[C@@H](C)O)[C@@H](C)O)[C@@H](C)CC)[C@@H](C)CC)C(C)C)C(C)C [compound 110] (H-IVLSLDVPIGLLQILLEQAKQRAAREQATTNARILARV-NH2; N-terminus assumed) | > 100 nM | 9% | 11 nM | 100%
2 | CC[C@H](C)[C@H](N)C(=O)N[C@H](C(=O)N[C@@H](CC(C)C)C(=O)N[C@@H](CO)C(=O)N[C@@H](CC(C)C)C(=O)N[C@@H](CC(=O)O)C(=O)N[C@H](C(=O)N1CCC[C@H]1C(=O)N[C@H](C(=O)NCC(=O)N[C@@H](CC(C)C)C(=O)N[C@@H](CC(C)C)C(=O)N[C@@H](CCC(N)=O)C(=O)N[C@H](C(=O)N[C@@H](CC(C)C)C(=O)N[C@@H](CC(C)C)C(=O)N[C@@H](CCC(=O)O)C(=O)N[C@@H](CCC(N)=O)C(=O)N[C@@H](CCC(=O)O)C(=O)N[C@@H](CCCNC(=N)N)C(=O)N[C@@H](CCC(N)=O)C(=O)N[C@@H](CCCNC(=N)N)C(=O)N[C@@H](C)C(=O)N[C@@H](C)C(=O)N[C@@H](CCCNC(=N)N)C(=O)N[C@@H](CCC(=O)O)C(=O)N[C@@H](CCC(N)=O)C(=O)N[C@@H](C)C(=O)N[C@H](C(=O)N[C@H](C(=O)N[C@@H](CC(N)=O)C(=O)N[C@@H](C)C(=O)N[C@@H](CCCNC(=N)N)C(=O)N[C@H](C(=O)N[C@@H](CC(C)C)C(=O)N[C@@H](C)C(=O)N[C@@H](CCCNC(=N)N)C(=O)N[C@H](C(N)=O)C(C)C)[C@@H](C)CC)[C@@H](C)O)[C@@H](C)O)[C@@H](C)CC)[C@@H](C)CC)C(C)C)C(C)C [compound 111] (H-IVLSLDVPIGLLQILLEQERQRAAREQATTNARILARV-NH2; N-terminus assumed) | – | 9% | – | 99%
3 | CC[C@H](C)[C@H](N)C(=O)N[C@H](C(=O)N[C@@H](CC(C)C)C(=O)N[C@@H](CO)C(=O)N[C@@H](CC(C)C)C(=O)N[C@@H](CC(=O)O)C(=O)N[C@H](C(=O)N1CCC[C@H]1C(=O)N[C@H](C(=O)NCC(=O)N[C@@H](CC(C)C)C(=O)N[C@@H](CC(C)C)C(=O)N[C@@H](CCC(N)=O)C(=O)N[C@H](C(=O)N[C@@H](CC(C)C)C(=O)N[C@@H](CC(C)C)C(=O)N[C@@H](CCC(=O)O)C(=O)N[C@@H](CCC(N)=O)C(=O)N[C@@H](C)C(=O)N[C@@H](CCCCN)C(=O)N[C@@H](C)C(=O)N[C@@H](CCC(=O)O)C(=O)N[C@@H](C)C(=O)N[C@@H](C)C(=O)N[C@@H](CCCNC(=N)N)C(=O)N[C@@H](CCC(=O)O)C(=O)N[C@@H](CCC(N)=O)C(=O)N[C@@H](C)C(=O)N[C@H](C(=O)N[C@H](C(=O)N[C@@H](CC(N)=O)C(=O)N[C@@H](C)C(=O)N[C@@H](CCCNC(=N)N)C(=O)N[C@H](C(=O)N[C@@H](CC(C)C)C(=O)N[C@@H](C)C(=O)N[C@@H](CCCNC(=N)N)C(=O)N[C@H](C(N)=O)C(C)C)[C@@H](C)CC)[C@@H](C)O)[C@@H](C)O)[C@@H](C)CC)[C@@H](C)CC)C(C)C)C(C)C [compound 112] (H-IVLSLDVPIGLLQILLEQAKAEAAREQATTNARILARV-NH2; N-terminus assumed) | > 100 nM | 10% | 12.3 nM | 100%
4 | CC[C@H](C)[C@H](N)C(=O)N[C@H](C(=O)N[C@@H](CC(C)C)C(=O)N[C@@H](CO)C(=O)N[C@@H](CC(C)C)C(=O)N[C@@H](CC(=O)O)C(=O)N[C@H](C(=O)N1CCC[C@H]1C(=O)N[C@H](C(=O)NCC(=O)N[C@@H](CC(C)C)C(=O)N[C@@H](CC(C)C)C(=O)N[C@@H](CCC(N)=O)C(=O)N[C@H](C(=O)N[C@@H](CC(C)C)C(=O)N[C@@H](CC(C)C)C(=O)N[C@@H](CCC(=O)O)C(=O)N[C@@H](CCC(N)=O)C(=O)N[C@@H](CCC(=O)O)C(=O)N[C@@H](CCCNC(=N)N)C(=O)N[C@@H](C)C(=O)N[C@@H](CCC(=O)O)C(=O)N[C@@H](C)C(=O)N[C@@H](C)C(=O)N[C@@H](CCCNC(=N)N)C(=O)N[C@@H](CCC(=O)O)C(=O)N[C@@H](CCC(N)=O)C(=O)N[C@@H](C)C(=O)N[C@H](C(=O)N[C@H](C(=O)N[C@@H](CC(N)=O)C(=O)N[C@@H](C)C(=O)N[C@@H](CCCNC(=N)N)C(=O)N[C@H](C(=O)N[C@@H](CC(C)C)C(=O)N[C@@H](C)C(=O)N[C@@H](CCCNC(=N)N)C(=O)N[C@H](C(N)=O)C(C)C)[C@@H](C)CC)[C@@H](C)O)[C@@H](C)O)[C@@H](C)CC)[C@@H](C)CC)C(C)C)C(C)C [compound 113] (H-IVLSLDVPIGLLQILLEQERAEAAREQATTNARILARV-NH2; N-terminus assumed) | > 100 nM | 4% | 11.3 nM | 98%
5 | CC[C@H](C)[C@H](N)C(=O)N[C@H](C(=O)N[C@@H](CC(C)C)C(=O)N[C@@H](CO)C(=O)N[C@@H](CC(C)C)C(=O)N[C@@H](CC(=O)O)C(=O)N[C@H](C(=O)N1CCC[C@H]1C(=O)N[C@H](C(=O)NCC(=O)N[C@@H](CC(C)C)C(=O)N[C@@H](CC(C)C)C(=O)N[C@@H](CCC(N)=O)C(=O)N[C@H](C(=O)N[C@@H](CC(C)C)C(=O)N[C@@H](CC(C)C)C(=O)N[C@@H](CCC(=O)O)C(=O)N[C@@H](CCC(N)=O)C(=O)N[C@@H](C)C(=O)N[C@@H](CCCNC(=N)N)C(=O)N[C@@H](CCC(N)=O)C(=O)N[C@@H](CCCNC(=N)N)C(=O)N[C@@H](C)C(=O)N[C@@H](C)C(=O)N[C@@H](CCCNC(=N)N)C(=O)N[C@@H](CCC(=O)O)C(=O)N[C@@H](CCC(N)=O)C(=O)N[C@@H](C)C(=O)N[C@H](C(=O)N[C@H](C(=O)N[C@@H](CC(N)=O)C(=O)N[C@@H](C)C(=O)N[C@@H](CCCNC(=N)N)C(=O)N[C@H](C(=O)N[C@@H](CC(C)C)C(=O)N[C@@H](C)C(=O)N[C@@H](CCCNC(=N)N)C(=O)N[C@H](C(N)=O)C(C)C)[C@@H](C)CC)[C@@H](C)O)[C@@H](C)O)[C@@H](C)CC)[C@@H](C)CC)C(C)C)C(C)C [compound 114] (H-IVLSLDVPIGLLQILLEQARQRAAREQATTNARILARV-NH2; N-terminus assumed) | – | 6% | – | 100%
